Data set [1] can be described thus: Measurement of Log P values by HPLC on reversed phase columns (EEC directive 79/831 Annex V.A8). In kind it is physicochemical. The note with it: method [a]: LC-UV, acidic range, 0.1% formic acid in water and acetonitrile.
In a further data set the test system is Botrytis cinerea. Kind of data set: Botrytis cinerea in vitro cell test. It is filed as cell-based. The note with it: 144 h, 50 μMol/l of active ingredient, liquid culture, 6 days incubation, read-out: efficacy (inhibition of fungal growth). The protocol:
B-9. Botrytis cinerea In Vitro Cell Test • Solvent: DMSO • Culture medium: 1 g KH2PO4 (VWR), 1 g K2HPO4 (VWR), 0.5 g Urea (VWR), 3 g KNO3 (Prolabo), 10 g saccharose (VWR), 0.5 g MgSO4, 7H2O (Sigma), 0.07 g CaCl2, 2H2O (Prolabo), 0.2 mg MnSO4, H2O (Sigma), 0.6 mg CuSO4, 5H2O (Sigma), 7.9 mg ZnSO4, 7H2O (Sigma), 0.1 mg H3BO3 (Merck), 0.14 mg NaMoO4, 2H2O (Sigma), 2 mg thiamine (Sigma), 0.1 mg biotine (VWR), 4 mg FeSO4, 7H2O (Sigma), QSP 1 liter • Inoculum: spore suspension Fungicides were solubilized in DMSO and the solution used to prepare the required range of concentrations. […] A spore suspension of B. cinerea was prepared and diluted to the desired spore density. Fungicides were evaluated for their ability to inhibit spore germination and mycelium growth in liquid culture assay. The compounds were added in the desired concentration to the culture medium with spores. After 6 days incubation, fungi-toxicity of compounds was determined by spectrometric measurement of mycelium growth. Inhibition of fungal growth was determined by comparing the absorbance values in wells containing the fungicides with the absorbance in control wells without fungicides.

Where [2] appears, read: Table 1, compounds of formula (I).
Setting [3] is: Table 3, intermediates of formula (27).

Experimental findings from patent US20250042886A1, “BIS(HETERO)ARYL THIOETHER OXADIAZINES AS FUNGICIDAL COMPOUNDS” (Bayer Aktiengesellschaft, priority 2021, published 2025) are described below.

In general, chromatographic logP refers to a lipophilicity value derived from retention on a column. A low value points to a more hydrophilic compound. The term inhibition denotes the drop in the measured response relative to a control, in per cent. As for `Cc1cc([C@@H]2CON=C(c3c(Sc4ccc(OC(F)(F)F)cc4)nnc(C)c3C)N2)c(C)s1` (racemic) [Compound I-119], the chromatographic logP in data set [1] (setting [2]) is 3.87. In the data set with Botrytis cinerea, the inhibition at 50 µM lay in the range of 70 to 79%. In data set [1] (setting [2]), `Cc1ccc([C@H]2CON=C(c3c(Sc4cc(Cl)cc(Cl)c4)nnc(C)c3C)N2)s1` (racemic) [Compound I-115] showed a chromatographic logP of 3.68. The inhibition at 50 µM in the data set on Botrytis cinerea is 90 to 100%. As for `Cc1ccc(Sc2nnc3ccccc3c2C2=NOC[C@H](c3ccc(C)s3)N2)cc1` (racemic) [Compound I-101], the chromatographic logP in data set [1] (setting [2]) was found to be 3.49. On the same count and under the same terms, next, `Cc1ccc(C)c(Sc2nnc(C)c(C)c2C2=NOC[C@H](c3cc(C)sc3C)N2)c1` (racemic) [Compound I-057]: 3.66; `Cc1ccc([C@@H]2CON=C(c3c(Sc4ccc(OC(F)(F)F)cc4)nnc(C)c3C)N2)s1` (racemic) [Compound I-116]: 3.52; `Cc1ccc([C@H]2CON=C(c3c(Sc4cccc5ccccc45)nnc(C)c3C)N2)s1` (racemic) [Compound I-092]: 3.3.

Compound `FC(F)(F)Oc1cccc(Sc2nnc(Cl)cc2C2=NOC[C@H](Cc3ccc(Cl)cc3Cl)N2)c1` (racemic) [Compound I-019] came in with a chromatographic logP in data set [1] (setting [2]) of 4.99. Still for that read-out and setting: next, `Cc1cc([C@@H]2CON=C(c3c(Sc4ccc(F)cc4)nnc(C)c3C)N2)c(C)s1` (racemic) [Compound I-081]: 3.18; `Cc1ccc([C@@H]2CON=C(c3c(Sc4ccc(Cl)cc4Cl)nnc(C)c3C)N2)s1` (racemic) [Compound I-075]: 3.45; `Cc1ccc(C)c(Sc2nnc(C)c(C)c2C2=NOC[C@H](c3ccc(C)s3)N2)c1` (racemic) [Compound I-043]: 3.28. Same read-out and setting: next, `Cc1cc([C@H]2CON=C(c3c(Sc4ccncc4)nnc(C)c3C)N2)c(C)s1` (racemic) [Compound I-041]: 1.58. On to `Cc1ccc([C@H]2CON=C(c3c(Sc4ccc(C)c(C)c4)nnc(C)c3C)N2)s1` (racemic) [Compound I-093], for which the chromatographic logP in data set [1] (setting [2]) came to 3.26. In addition, the inhibition at 50 µM in the data set with Botrytis cinerea is 90 to 100%.

In the case of `Cc1ccc(Sc2nnc(C)c(C)c2C2=NOC[C@@H](c3ccc(C)s3)N2)cc1` (racemic) [Compound I-094], the chromatographic logP in data set [1] (setting [2]) amounted to 3.01.

The compound `Cc1ccc([C@H]2CON=C(c3c(Sc4ccc(Cl)cc4)nnc4ccccc34)N2)s1` (racemic) [Compound I-070] yielded a chromatographic logP in data set [1] (setting [2]) of 3.62. The same measure, in the same setting: with `Cc1ccc([C@H]2CON=C(c3c(Sc4cc(Cl)cc(Cl)c4)nnc4ccccc34)N2)s1` (racemic) [Compound I-120] the figure was 4.18; with `Cc1ccc([C@H]2CON=C(c3c(Sc4ccc(Cl)cc4Cl)nnc4ccccc34)N2)s1` (racemic) [Compound I-058], 3.96. `Cc1ccc([C@H]2CON=C(c3c(Sc4ccc5ccccc5c4)nnc4ccccc34)N2)s1` (racemic) [Compound I-098] registered a chromatographic logP in data set [1] (setting [2]) of 3.81. On the same count and under the same terms, next, `Cc1ccc([C@H]2CON=C(c3c(Sc4ccncc4)nnc(C)c3C)N2)s1` (racemic) [Compound I-072]: 1.3. Same read-out and setting: next, `COc1ccc(Sc2nnc(C)c(C)c2C2=NOC[C@@H](c3ccc(C)s3)N2)cc1` (racemic) [Compound I-054]: 2.76.

Consider `C=CCON=C(N)c1c(Br)nnc2ccccc12` [Compound 27-02], for which the chromatographic logP in data set [1] (setting [3]) amounted to 1.81. For `Cc1cc([C@H]2CON=C(c3c(Sc4cc(Cl)cc(Cl)c4)nnc(C)c3C)N2)c(C)s1` (racemic) [Compound I-061], in data set [1] (setting [2]), the chromatographic logP was 4.04. Further, in the data set on Botrytis cinerea, the inhibition at 50 µM lay within 70 to 79%. In the case of `Cc1ccc(Sc2nnc(C)c(C)c2C2=NOC[C@@H](c3cc(C)sc3C)N2)c(C)c1` (racemic) [Compound I-087], the chromatographic logP in data set [1] (setting [2]) was 3.68. For the same compound, the inhibition at 50 µM in the data set on Botrytis cinerea is 70 to 79%. Compound `Cc1ccc([C@@H]2CON=C(c3c(Sc4ccc(F)cc4F)nnc(C)c3C)N2)s1` (racemic) [Compound I-073] yielded a chromatographic logP in data set [1] (setting [2]) of 2.95. Besides, the inhibition at 50 µM with Botrytis cinerea fell in the range of 80 to 89%.

In data set [1] (setting [2]), `Cc1ccc([C@H]2CON=C(c3c(Sc4ccccn4)nnc(C)c3C)N2)s1` (racemic) [Compound I-105] had a chromatographic logP of 2.03. On the same count and under the same terms, next, `Cc1cc([C@@H]2CON=C(c3c(Sc4ccc(C(C)(C)C)cc4)nnc(C)c3C)N2)c(C)s1` (racemic) [Compound I-132]: 4.32. In turn, `Cc1ccc([C@H]2CON=C(c3c(Sc4ccc(OC(F)(F)F)cc4)nnc4ccccc34)N2)s1` (racemic) [Compound I-112] had a chromatographic logP in data set [1] (setting [2]) of 3.96. The inhibition at 50 µM in the data set with Botrytis cinerea lay in the range of 70 to 79%. For the compound `Cc1cc([C@H]2CON=C(c3c(Sc4cccc5ccccc45)nnc(C)c3C)N2)c(C)s1` (racemic) [Compound I-037], the chromatographic logP in data set [1] (setting [2]) amounted to 3.67. The compound `Cc1ccc([C@H]2CON=C(c3c(Sc4ccc(C(C)(C)C)cc4)nnc4ccccc34)N2)s1` (racemic) [Compound I-113] registered a chromatographic logP in data set [1] (setting [2]) of 4.43.

In data set [1] (setting [2]), `Cc1ccc([C@@H]2CON=C(c3c(Sc4ccc(C(C)(C)C)cc4)nnc(C)c3C)N2)s1` (racemic) [Compound I-065] showed a chromatographic logP of 3.95.

Compound `Cc1cc([C@H]2CON=C(c3c(Sc4ccc(Cl)cc4)nnc(C)c3C)N2)c(C)s1` (racemic) [Compound I-134] displayed a chromatographic logP in data set [1] (setting [2]) of 3.49. On the same count and under the same terms, with `Cc1cc([C@@H]2CON=C(c3c(Sc4ccc(Cl)cc4Cl)nnc(C)c3C)N2)c(C)s1` (racemic) [Compound I-039] the figure was 3.87. Compound `NC(=NO)c1c(Br)nnc2ccccc12` [Compound 29-02] had a chromatographic logP in data set [1] (Table 4, intermediates of formula (29)) of 0.31.

The compound `Cc1cc([C@H]2CON=C(c3c(Sc4ccc(Cl)c(Cl)c4)nnc(C)c3C)N2)c(C)s1` (racemic) [Compound I-107] yielded a chromatographic logP in data set [1] (setting [2]) of 3.92. In the data set on Botrytis cinerea, the inhibition at 50 µM fell in the range of 80 to 89%.

`Cc1ccc([C@@H]2CON=C(c3c(Sc4ccc(C(F)(F)F)cc4)nnc(C)c3C)N2)s1` (racemic) [Compound I-128] had a chromatographic logP in data set [1] (setting [2]) of 3.36. `Cc1ccc(Sc2nnc3ccccc3c2C2=NOC[C@H](c3ccc(C)s3)N2)c(C)c1` (racemic) [Compound I-052]: the chromatographic logP in data set [1] (setting [2]) worked out at 3.83. In data set [1] (setting [2]), `Cc1ccc([C@@H]2CON=C(c3c(Sc4ccc(C)c(Cl)c4)nnc(C)c3C)N2)s1` (racemic) [Compound I-082] showed a chromatographic logP of 3.47. Moreover, the inhibition at 50 µM in the data set with Botrytis cinerea is 90 to 100%. For `Cc1ccc([C@H]2CON=C(c3c(Sc4cc(Cl)ccc4Cl)nnc(C)c3C)N2)s1` (racemic) [Compound I-053], the chromatographic logP in data set [1] (setting [2]) came to 3.4. For the compound `Cc1ccc([C@H]2CON=C(c3c(Sc4ccccc4Cl)nnc(C)c3C)N2)s1` (racemic) [Compound I-114], in data set [1] (setting [2]), the chromatographic logP worked out at 2.93. For the same compound, in the data set with Botrytis cinerea, the inhibition at 50 µM was 90 to 100%. For `Cc1ccc([C@H]2CON=C(c3c(Sc4ccc(Cl)c(Cl)c4)nnc(C)c3C)N2)s1` (racemic) [Compound I-137] the same measures were 3.55 and 90 to 100%. For `Cc1ccc([C@@H]2CON=C(c3c(Sc4ccc(F)cc4)nnc(C)c3C)N2)s1` (racemic) [Compound I-063] the same measures were 2.82 and 70 to 79%. In data set [1] (setting [2]), `Cc1cc([C@@H]2CON=C(c3c(Sc4ccc(F)cc4F)nnc(C)c3C)N2)c(C)s1` (racemic) [Compound I-051] had a chromatographic logP of 3.32. The same measure, in the same setting: with `Cc1ccc([C@H]2CON=C(c3c(Sc4ccc(Cl)cc4)nnc(C)c3C)N2)s1` (racemic) [Compound I-064] the figure was 3.14; with `Cc1cc([C@@H]2CON=C(c3c(Sc4ccc(C(F)(F)F)cc4)nnc(C)c3C)N2)c(C)s1` (racemic) [Compound I-076], 3.71; with `Cc1ccc(C)c(Sc2nnc3ccccc3c2C2=NOC[C@H](c3ccc(C)s3)N2)c1` (racemic) [Compound I-123], 3.8.

As to `Cc1ccc([C@H]2CON=C(c3c(Sc4ccc(C(F)(F)F)cc4)nnc4ccccc34)N2)s1` (racemic) [Compound I-130], the chromatographic logP in data set [1] (setting [2]) came to 3.81. Moreover, the inhibition at 50 µM in the data set on Botrytis cinerea was 70 to 79%.

In turn, `Cc1ccc([C@H]2CON=C(c3c(Sc4cc(Cl)ccc4Cl)nnc4ccccc34)N2)s1` (racemic) [Compound I-096] showed a chromatographic logP in data set [1] (setting [2]) of 3.88. `C=CCON=C(N)c1c(Br)nnc(C)c1C` [Compound 27-01] displayed a chromatographic logP in data set [1] (setting [3]) of 1.28. In data set [1] (setting [2]), `Cc1ccc([C@@H]2CON=C(c3c(Sc4ccc5ccccc5c4)nnc(C)c3C)N2)s1` (racemic) [Compound I-138] had a chromatographic logP of 3.33. Still for that read-out and setting: next, `COc1ccc(Sc2nnc3ccccc3c2C2=NOC[C@H](c3ccc(C)s3)N2)cc1` (racemic) [Compound I-077]: 3.22.
